Laboratory results: US5609749A, “Electrochemical assay method with novel p-phenylenediamine compound” (Mochida Pharmaceutical Co., Ltd., priority 1993, dated 1997)

Legend:
[1] = Measurement of vapor pressures (gas flow method); assay type: physicochemical; settings: for vapor pressure: gas flow method
Protocol: Measurement of vapor pressures of p-phenylenediamine(PPD), N,N,N',N'-tetramethyl-p-phenylenediamine (TMPD), TEPD, TCPD, THEPD and TDHPD
The PPD(manufactured by Wakoh Junyaku K.K), TMPD (manufactured by Tokyo Kasei K.K), further, TEPD, TCPD, THEPD and TDHPO obtained in the course of the procedures of Synthesis Examples 1 to 4 were checked for their vapor pressures.
Vapor densities (amount of evaporation/volume) of the solid samples (PPD, TMPD, TEPD, TCPD, THEPD and TDHPD) were measured by contacting each sample heated to a predetermined temperature with a stream of carrier gas (nitrogen) and saturating the sample with vapor, and vapor pressures of TEPD and THEPD were calculated from the data on an assumption that the vapor follows the law of ideal gas (gas flow method). The vapor density was calculated by measuring evaporation rate (loss rate) of each sample using an electric balance, and the carrier gas flow rate using a flow meter.
The vapor pressure was calculated from the vapor density based on the following formula.
In the above formula, P represents vapor pressure (mmHg), k represents evaporation rate (mg/min), v represents carrier gas flow rate (ml/min), k/v represents vapor density (mg/ml), M represents molecular weight of each sample, π represents pressure of the system (mmHg) and V represents molar volume of carrier gas (l/mol).

[2] = Current response of electron mediators in buffer solution and in the presence of blood, urine
Text: Of these oxidation-reduction enzymes, glucose oxidase (GOD) is used in enzyme electrodes for the measurement of blood glucose level and horseradish peroxidase (HRPO) is used as a label enzyme in specific binding assays such as DNA hybridization, immunoassay and the like. […] However, these electron mediators were not able to show stable and reproducible response in the presence of blood, urine and the like because of the interfering substances contained therein.

[3] = Dry chemistry type chips: filter paper impregnated with mediator solution and dried on an electrode; settings: mediator dried on cellulose or glass filter paper, dissolved by liquid sample
Text: In addition, the present inventors have attempted to prepare a dry chemistry type chips by impregnating a piece of cellulose filter paper or glass filter paper with a solution of HQ, PPD, TMPD or TEPD and drying the resulting piece on an electrode (by freeze-drying, vacuum drying, air-drying or the like) or arranging it on an electrode after drying so that the impregnated electron mediator can dissolve in a liquid sample at the time of measurement.

[4] = tested on: hCG; test: Measurement of hCG in whole blood with specific binding assay device (MEDIA method), freeze-dried electron mediator member; design: species or system human; settings: hCG 0 vs 1,000 IU/l whole blood, -150 mV
Protocol: The specific binding assay device shown in FIGS. 2 and 3 was constructed, and concentration of hCG in samples was measured using the device. The HRPO-HM81 obtained in the above step (1) was diluted with a phosphate buffer (pH 6.0) containing 5% normal rabbit serum (NRS), 10% saccharose and 0.1M NaCl to prepare a solution having a peroxidase activity of 0.63 U/ml. Next, 140 μl of the solution was spotted on a circular filter paper piece of 12 mm in diameter punched out from glass fiber filter paper (GA100, manufactured by Advantech Toyo) and then freeze-dried to obtain an HRPO-HM81 freeze-dry member to be used as the labeled antibody-impregnatedmember 14. The THEPD obtained in Synthesis Example 3 was dissolved in a phosphate buffer (pH 6.0) containing 0.1M NaCl to prepare a 5.0 mM solution. Next, 140 μl of the solution was spotted on a circular filter paper piece of 12 mm in diameter punched out from glass fiber filter paper (GA100, manufactured by Advantech Toyo) and then freeze-dried to obtain a THEPD freeze-dry member to be used as the electron mediator-impregnated member 16 of the present invention. The TEPD obtained in Synthesis Example 1 was dissolved in a phosphate buffer (pH 6.0) containing 1M NaCl to prepare a 5.0 mM solution. […]

| SMILES | vapor pressure ([1]; at 25° C.) | current response ([2]; in a buffer solution) | response in the presence of blood, urine and the like ([2]; interfering substances in blood, urine) | current response and characteristics of dry chemistry type chips [3] | electric current response to hCG concentration [4] | vapor pressure lower than that of TEPD ([1]; at 25° C.) | property in drying (freeze-drying, vacuum drying, air-drying) and stability of dried states ([1]; compared with PPD, TMPD and TEPD, concluded from vapor pressures) |
| --- | --- | --- | --- | --- | --- | --- | --- |
| CCN(CC)c1ccc(N(CC)CC)cc1.Cl.Cl [TEPD, N,N,N',N'-tetraethyl-p-phenylenediamine dihydrochloride, reference compound] | 4.2×10^-4 mmHg | excellent current response | interference | low current response and extremely poor characteristics | the electric current did not increase in response to the concentration of hCG |  |  |
| Cl.Cl.OCCN(CCO)c1ccc(N(CCO)CCO)cc1 [THEPD, N,N,N',N'-tetrakis-(2'-hydroxyethyl)-p-phenylenediamine dihydrochloride] | 1.3×10^-6 mmHg |  |  |  | the reduction current became high in response to the concentration of hCG | about 300 times | superior to those of PPD, TMPD and TEPD |
